Patent US10385103B2, “Cell-permeable (ICP)-SOCS3 recombinant protein and uses thereof” (CELLIVERY THERAPEUTICS, INC., priority 2014, dated 2019)

Test system: RAW 264.7 cells
Assay: Quantitative cell-permeability of FITC-labeled aMTD- or rPeptide-fused CRA recombinant proteins (flow cytometry)
Assay type: cell-based
Details: for Relative Ratio to aMTD AVE: cell-permeability of rPeptide-fused CRA recombinant protein relative to average of 240 aMTDs
Procedure, shortened: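 RAW 264.7 cells were exposed to 10 μM FITC-labeled recombinant proteins, consisting of a non-functional cargo fused to aMTD or rPeptide sequences, for 1 hour at 37° C. Cells were washed three times in cold PBS and treated with 0.25% tripsin/EDTA for 20 minutes at 37° C. to strip surface-bound protein, then uptake was measured by flow cytometry.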

[1] = cell-permeability of aMTD-fused CRA recombinant protein relative to negative control (A: rP38)
[2] = cell-permeability of aMTD-fused CRA recombinant protein relative to reference CPP (B: MTM12)
[3] = cell-permeability of aMTD-fused CRA recombinant protein relative to reference CPP (C: MTD85)
[4] = 10 μM FITC-labeled, 1 hour, 37° C., RAW 264.7 cells
[5] = cell-permeability relative to negative control rP38 (A type), aMTD-fused CRA recombinant protein, 10 μM FITC-labeled, 1 hour, 37° C., RAW 264.7 cells
[6] = cell-permeability relative to reference CPP MTD85 (C type), aMTD-fused CRA recombinant protein, 10 μM FITC-labeled, 1 hour, 37° C., RAW 264.7 cells
[7] = cell-permeability relative to reference CPP MTM12 (B type), aMTD-fused CRA recombinant protein, 10 μM FITC-labeled, 1 hour, 37° C., RAW 264.7 cells

For “899 (AVVIALPAVVAP; Amino acid Sequence of aMTD899) [compound 899]”, the “Relative Ratio (Fold) A” value [1] was 164.2 Fold, the “Relative Ratio (Fold) B” value [2] was 109.9 Fold and the “Relative Ratio (Fold) C” value [3] was 55.5 Fold. The “Relative Ratio (Fold) A” value (relative cell-permeability of aMTD vs reference A (not defined)) was 164.2 Fold, the “Relative Ratio (Fold) B” value (relative cell-permeability of aMTD vs reference CPP B: MTM12) was 109.9 Fold and the “Relative Ratio (Fold) C” value (relative cell-permeability of aMTD vs reference CPP C: MTD85) was 55.5 Fold.

With “145 (LLAVVPAVALAP; Amino acid Sequence of aMTD145) [compound 145]” the “Relative Ratio (Fold) A” value [1] was 9.5 Fold, the “Relative Ratio (Fold) B” value [2] was 6.3 Fold and the “Relative Ratio (Fold) C” value [3] was 3.2 Fold.

With “167 (VAIAIPAALAIP; Amino acid Sequence of rPeptide ID 167) [compound 167]” the “Relative Ratio to aMTD AVE” value [4] was 0.50.

In the case of “543 (LLAALIAPAALP; Amino acid Sequence of aMTD543) [compound 543]”, the “Relative Ratio (Fold) A” value [1] is reported as 11.7 Fold, the “Relative Ratio (Fold) B” value [2] is reported as 7.9 Fold and the “Relative Ratio (Fold) C” value [3] is reported as 4.0 Fold.

“445 (ALAALVPALVVP; Amino acid Sequence of aMTD445) [compound 445]” was tested, and the “Relative Ratio (Fold) A” value [5] was 6.9 Fold, the “Relative Ratio (Fold) C” value [6] was 2.3 Fold and the “Relative Ratio (Fold) B” value [7] was 4.6 Fold.

“565 (VAIVLVAPAVAP; Amino acid Sequence of aMTD565) [compound 565]” was tested, and the “Relative Ratio (Fold) A” value [1] was 7.5 Fold, the “Relative Ratio (Fold) B” value [2] was 5.0 Fold and the “Relative Ratio (Fold) C” value [3] was 2.5 Fold.

For “881 (AALIVVPAVAVP; Amino acid Sequence of aMTD881) [compound 881]”, the “Relative Ratio (Fold) A” value [1] was 12.7 Fold, the “Relative Ratio (Fold) B” value [2] was 8.5 Fold and the “Relative Ratio (Fold) C” value [3] was 4.3 Fold.

In the case of “21 (AVALLPALLAVP; Amino acid Sequence of aMTD21) [compound 21]”, the “Relative Ratio (Fold) A” value [1] is reported as 18.9 Fold, the “Relative Ratio (Fold) B” value [2] is reported as 12.6 Fold and the “Relative Ratio (Fold) C” value [3] is reported as 6.4 Fold.

In the case of “692 (PAPLPPVVILAV; Amino acid Sequence of rPeptide ID 692) [compound 692]”, the “Relative Ratio to aMTD AVE” value [4] is reported as 0.74.

“878 (IVALVAPAAVVP; Amino acid Sequence of aMTD878) [compound 878]” was tested, and the “Relative Ratio (Fold) A” value [1] was 10.3 Fold, the “Relative Ratio (Fold) B” value [2] was 6.9 Fold and the “Relative Ratio (Fold) C” value [3] was 3.5 Fold.

In the case of “700 (GTSNTCQSNQNS; Amino acid Sequence of rPeptide ID 700) [compound 700]”, the “Relative Ratio to aMTD AVE” value [4] is reported as 0.05, the “Relative Ratio (Fold) A” value (relative cell-permeability of rPeptide vs reference A (not defined)) is reported as 1.0 Fold and the “Relative Ratio (Fold) B” value (relative cell-permeability of rPeptide vs reference CPP B: MTM12) is reported as 0.6 Fold. For the same substance, the “Relative Ratio (Fold) C” value (relative cell-permeability of rPeptide vs reference CPP C: MTD85) was 0.3 Fold.

“726 (LAVAIIAPAVAP; Amino acid Sequence of aMTD726) [compound 726]” was tested, and the “Relative Ratio (Fold) A” value [1] was 16.5 Fold, the “Relative Ratio (Fold) B” value [2] was 11.0 Fold and the “Relative Ratio (Fold) C” value [3] was 5.6 Fold.

For “422 (VVAILAPLLAAP; Amino acid Sequence of aMTD422) [compound 422]”, the “Relative Ratio (Fold) A” value [1] was 19.6 Fold, the “Relative Ratio (Fold) B” value [2] was 13.1 Fold and the “Relative Ratio (Fold) C” value [3] was 6.6 Fold.

For “462 (IAAVLVPAVALP; Amino acid Sequence of aMTD462) [compound 462]”, the “Relative Ratio (Fold) A” value [5] was 6.3 Fold, the “Relative Ratio (Fold) C” value [6] was 2.1 Fold and the “Relative Ratio (Fold) B” value [7] was 4.2 Fold.

In the case of “222 (ALLIAPAAVIAP; Amino acid Sequence of aMTD222) [compound 222]”, the “Relative Ratio (Fold) A” value [1] is reported as 32.6 Fold, the “Relative Ratio (Fold) B” value [2] is reported as 21.7 Fold and the “Relative Ratio (Fold) C” value [3] is reported as 11.0 Fold.

“601 (AAILIAVPIAAP; Amino acid Sequence of aMTD601) [compound 601]” was tested, and the “Relative Ratio (Fold) A” value [1] was 26.8 Fold, the “Relative Ratio (Fold) B” value [2] was 17.9 Fold and the “Relative Ratio (Fold) C” value [3] was 9.0 Fold.

In the case of “868 (VLVAAILPAAIP; Amino acid Sequence of aMTD868) [compound 868]”, the “Relative Ratio (Fold) A” value [1] is reported as 14.9 Fold, the “Relative Ratio (Fold) B” value [2] is reported as 10.0 Fold and the “Relative Ratio (Fold) C” value [3] is reported as 5.0 Fold.

In the case of “521 (LAALIVVPAVAP; Amino acid Sequence of aMTD521) [compound 521]”, the “Relative Ratio (Fold) A” value [1] is reported as 9.4 Fold, the “Relative Ratio (Fold) B” value [2] is reported as 6.3 Fold and the “Relative Ratio (Fold) C” value [3] is reported as 3.2 Fold.

With “623 (VAAAIALPAIVP; Amino acid Sequence of aMTD623) [compound 623]” the “Relative Ratio (Fold) A” value [5] was 0.8 Fold, the “Relative Ratio (Fold) C” value [6] was 0.3 Fold and the “Relative Ratio (Fold) B” value [7] was 0.6 Fold.

For “4 (ALALLPVAALAP; Amino acid Sequence of aMTD4) [compound 4]”, the “Relative Ratio (Fold) A” value [5] was 2.0 Fold, the “Relative Ratio (Fold) C” value [6] was 0.7 Fold and the “Relative Ratio (Fold) B” value [7] was 1.3 Fold.

In the case of “643 (LALVLAAPAIVP; Amino acid Sequence of aMTD643) [compound 643]”, the “Relative Ratio (Fold) A” value [1] is reported as 11.8 Fold, the “Relative Ratio (Fold) B” value [2] is reported as 7.9 Fold and the “Relative Ratio (Fold) C” value [3] is reported as 4.0 Fold.

For “897 (AVIVPVAIIAAP; Amino acid Sequence of aMTD897) [compound 897]”, the “Relative Ratio (Fold) A” value [1] was 11.2 Fold, the “Relative Ratio (Fold) B” value [2] was 7.5 Fold and the “Relative Ratio (Fold) C” value [3] was 3.8 Fold. For the same substance, the “Relative Ratio (Fold) A” value [5] was 11.2 Fold, the “Relative Ratio (Fold) C” value [6] was 3.8 Fold and the “Relative Ratio (Fold) B” value [7] was 7.5 Fold.

With “39 (CYNTSPCTGCCY; Amino acid Sequence of rPeptide ID 39) [compound 39]” the “Relative Ratio to aMTD AVE” value [4] was 0.29.

“301 (VIAAPVLAVLAP; Amino acid Sequence of aMTD301) [compound 301]” was tested, and the “Relative Ratio (Fold) A” value [5] was 6.0 Fold, the “Relative Ratio (Fold) C” value [6] was 2.0 Fold and the “Relative Ratio (Fold) B” value [7] was 4.0 Fold.

In the case of “583 (AVILALAPIVAP; Amino acid Sequence of aMTD583) [compound 583]”, the “Relative Ratio (Fold) A” value [5] is reported as 7.3 Fold, the “Relative Ratio (Fold) C” value [6] is reported as 2.4 Fold and the “Relative Ratio (Fold) B” value [7] is reported as 4.8 Fold.

In the case of “402 (ALAAVIPAAILP; Amino acid Sequence of aMTD402) [compound 402]”, the “Relative Ratio (Fold) A” value [5] is reported as 6.4 Fold, the “Relative Ratio (Fold) C” value [6] is reported as 2.2 Fold and the “Relative Ratio (Fold) B” value [7] is reported as 4.3 Fold.

With “3 (AALLVPAAVLAP; Amino acid Sequence of aMTD3) [compound 3]” the “Relative Ratio (Fold) A” value [1] was 27.0 Fold, the “Relative Ratio (Fold) B” value [2] was 18.0 Fold and the “Relative Ratio (Fold) C” value [3] was 9.1 Fold.

“484 (LAVVLAAPAIVP; Amino acid Sequence of aMTD484) [compound 484]” was tested, and the “Relative Ratio (Fold) A” value [1] was 15.8 Fold, the “Relative Ratio (Fold) B” value [2] was 10.4 Fold and the “Relative Ratio (Fold) C” value [3] was 5.3 Fold.

For “465 (IAAVIVPVAALP; Amino acid Sequence of aMTD465) [compound 465]”, the “Relative Ratio (Fold) A” value [1] was 7.4 Fold, the “Relative Ratio (Fold) B” value [2] was 4.9 Fold and the “Relative Ratio (Fold) C” value [3] was 2.5 Fold.

“893 (VIAIPAILAAAP; Amino acid Sequence of aMTD893) [compound 893]” was tested, and the “Relative Ratio (Fold) A” value [5] was 7.0 Fold, the “Relative Ratio (Fold) C” value [6] was 2.4 Fold and the “Relative Ratio (Fold) B” value [7] was 4.7 Fold.

In the case of “910 (VAALLPAVVVAP; Amino acid Sequence of aMTD910) [compound 910]”, the “Relative Ratio (Fold) A” value [1] is reported as 149.5 Fold, the “Relative Ratio (Fold) B” value [2] is reported as 99.4 Fold and the “Relative Ratio (Fold) C” value [3] is reported as 50.2 Fold.

For “361 (AVVIVAPAVIAP; Amino acid Sequence of aMTD361) [compound 361]”, the “Relative Ratio (Fold) A” value [1] was 16.0 Fold, the “Relative Ratio (Fold) B” value [2] was 10.7 Fold and the “Relative Ratio (Fold) C” value [3] was 5.4 Fold.

For “25 (IVAVAPALVALP; Amino acid Sequence of aMTD25) [compound 25]”, the “Relative Ratio (Fold) A” value [5] was 2.4 Fold, the “Relative Ratio (Fold) C” value [6] was 0.8 Fold and the “Relative Ratio (Fold) B” value [7] was 1.6 Fold.

In the case of “685 (ALLVAVLPAALP; Amino acid Sequence of aMTD685) [compound 685]”, the “Relative Ratio (Fold) A” value [1] is reported as 10.2 Fold, the “Relative Ratio (Fold) B” value [2] is reported as 5.9 Fold and the “Relative Ratio (Fold) C” value [3] is reported as 3.4 Fold.

For “667 (LAVAIVAPALVP; Amino acid Sequence of aMTD667) [compound 667]”, the “Relative Ratio (Fold) A” value [5] was 6.9 Fold, the “Relative Ratio (Fold) C” value [6] was 2.3 Fold and the “Relative Ratio (Fold) B” value [7] was 4.6 Fold.

“281 (ALIVLPAAVAVP; Amino acid Sequence of aMTD281) [compound 281]” was tested, and the “Relative Ratio (Fold) A” value [1] was 13.3 Fold, the “Relative Ratio (Fold) B” value [2] was 8.9 Fold and the “Relative Ratio (Fold) C” value [3] was 4.5 Fold. For the same substance, the “Relative Ratio (Fold) A” value [5] was 13.3 Fold, the “Relative Ratio (Fold) C” value [6] was 4.5 Fold and the “Relative Ratio (Fold) B” value [7] was 8.9 Fold.

“849 (AVILLAPLIAAP; Amino acid Sequence of aMTD849) [compound 849]” was tested, and the “Relative Ratio (Fold) A” value [1] was 8.3 Fold, the “Relative Ratio (Fold) B” value [2] was 4.8 Fold and the “Relative Ratio (Fold) C” value [3] was 2.9 Fold.

“883 (LAIVPAAIAALP; Amino acid Sequence of aMTD883) [compound 883]” was tested, and the “Relative Ratio (Fold) A” value [5] was 3.0 Fold, the “Relative Ratio (Fold) C” value [6] was 1.0 Fold and the “Relative Ratio (Fold) B” value [7] was 2.0 Fold.

For “562 (ALIAAIVPALVP; Amino acid Sequence of aMTD562) [compound 562]”, the “Relative Ratio (Fold) A” value [1] was 32.7 Fold, the “Relative Ratio (Fold) B” value [2] was 21.8 Fold and the “Relative Ratio (Fold) C” value [3] was 11.0 Fold.

With “265 (VLAIAPLLAAVP; Amino acid Sequence of aMTD265) [compound 265]” the “Relative Ratio (Fold) A” value [5] was 6.0 Fold, the “Relative Ratio (Fold) C” value [6] was 2.0 Fold and the “Relative Ratio (Fold) B” value [7] was 4.0 Fold.

“263 (ALAVIPAAAILP; Amino acid Sequence of aMTD263) [compound 263]” was tested, and the “Relative Ratio (Fold) A” value [1] was 9.0 Fold, the “Relative Ratio (Fold) B” value [2] was 6.0 Fold and the “Relative Ratio (Fold) C” value [3] was 3.0 Fold.
